Data published in article PMC6151660 (Molecules : A Journal of Synthetic Chemistry and Natural …, 2017).
In brackets after ≈: the same amount, converted by molar mass. Where two headings read alike, the source gives them in different places.

Experiments:
[1] = system: Mycobacterium tuberculosis H37Rv; assay: microbe, parasite or virus in culture; type: cell-based; conditions: for activity at 1 µM / activity at 50 µM / activity at 100 µM: 120 h
[2] = system: M. tuberculosis H37RvMA pMSP12:GFP; assay: microbe, parasite or virus in culture; type: cell-based; conditions: Mycobacterium tuberculosis
[3] = target: equine butyrylcholinesterase (BuChE); parameters: method as in Joubert et al., 2017 [23]; conditions: ref Joubert et al., 2017 [23]; cited from earlier work
electric eel AChE = system: electric eel AChE; parameters: method as in Joubert et al., 2017 [23]; conditions: ref Joubert et al., 2017 [23]; cited from earlier work
[4] = system: M. tuberculosis H37Rv:pCHERRY3; assay: microbe, parasite or virus in culture; type: cell-based; conditions: Mycobacterium tuberculosis
[5] = Chinese hamster ovary cell cytotoxicity MTT assay; conditions: for CC50 at 44 h: CHO cells
Procedure: Cytotoxicity was evaluated on CHO cells utilizing a standard 3-[4,5-dimethylthiazol-2-yl]-2,5-diphenyl tetrazolium bromide (MTT) assay. The MTT is a yellow tetrazolium salt that is reduced to purple formazan in the presence of living cells. This reduction reaction was used to measure growth and chemosensitivity. The test samples were tested in triplicate on one occasion. Cells were seeded in microtiter plates at a density of 10^5 cells/mL and incubated for 24 h prior to exposure. The test samples were prepared to a 20 mg/mL stock solution in 10% methanol or 10% DMSO and were tested as a suspension if not properly dissolved. Test compounds were stored at −20 °C until use, and administered in volumes of 100 µL to the plated cells. Emetine was used as the reference drug in all experiments. […] Plates were developed after 44 h of exposure to the drug by the addition of a solution of MTT. After four hours, further incubation at 37 °C the supernatant was removed from the cells via suction and DMSO was added to each well to dissolve the reduced dye crystals. […] The amount of formazan produced in wells containing untreated cells only and growth medium only represent 100% survival and 0% survival respectively, and the amount in each treatment well was converted to a survival percentage relative to these two extremes. The IC50 values were obtained from full dose-response curves, using a non-linear dose-response curve fitting analysis via GraphPad Prism v.4 software.

SH-SY5Y cells [6] = assay: MPP+-induced cytotoxicity in SH-SY5Y cells (neuroprotection); conditions: 1000 μM MPP+ for 48 h; for cell survival restored after MPP+ exposure: 1 µM compound, untreated control 100%
SH-SY5Y cells [7] = assay: SH-SY5Y cytotoxicity MTT assay; type: cell-based, human; conditions: 48 h
Procedure: (§1) The human neuroblastoma cell line SH-SY5Y was generously donated by our collaborator at the Division of Molecular Biology and Human Biology, Stellenbosch University, Tygerberg, Cape Town. Cells were cultured in monolayer using Dulbecco Modified Eagles Medium (DMEM, Gibco, Life Technologies Ltd. Carlsbad, CA, USA) supplemented with 10% fetal bovine serum (FBS, Gibco, Life Technologies Ltd.) and 1% 100 U/mL penicillin and 100 μg/mL streptomycin (Lonza Group Ltd., Basel, Switzerland). Cells were grown at 37 °C, in a humidified atmosphere at 5% CO2. Media were replaced every two to three days and cells were sub-cultured by splitting with trypsin (Lonza Group Ltd.).
(§2) The standard MTT assay which measures cell metabolic activity was used to determine cytotoxicity of CM14, CM15 and CM9 as described by Mosmann. Briefly, SH-SY5Y cells were plated in flat bottom 96 well plates in growth medium as stated in Section 3.7.1 at a density of 7500 cells/well. Cells were allowed to adhere to the plate surface for 24 h and used media were replaced with fresh media containing test compounds at 10 µM, 50 µM and 100 µM. Vehicle control cells were treated with DMSO (solvent for dissolving test compounds) at a concentration similar to the amount contained in the highest concentration of test compounds. After 48 h, 10 µL of MTT solution (5 mg/mL) was added to each well and incubated for 4 h and the purple formazan formed was solubilized with 100 µL DMSO and plates were read spectrophotometrically to determine absorbance at 570 nm using a BMG Labtech POLARStar Omega multimodal plate reader.

[8] = SH-SY5Y cytotoxicity MTT assay; type: cell-based, human; conditions: human, SH-SY5Y neuroblastoma cells, MTT, read-out: CC 50% SH-SY5Y (range where 50% cell toxicity will be observed)
Procedure: as §1, §2

BSA = target: T1, BSA (Bos taurus, UniProt P02769); assay: Bovine serum albumin binding assay (fluorescence quenching); conditions: BSA 1.00 × 10^−5 mol L^−1, 22 °C, ex 295 nm
T1 construct: purchased Sigma Aldrich (Kempton Park, South Africa)
T1 sequence (P02769 25-607): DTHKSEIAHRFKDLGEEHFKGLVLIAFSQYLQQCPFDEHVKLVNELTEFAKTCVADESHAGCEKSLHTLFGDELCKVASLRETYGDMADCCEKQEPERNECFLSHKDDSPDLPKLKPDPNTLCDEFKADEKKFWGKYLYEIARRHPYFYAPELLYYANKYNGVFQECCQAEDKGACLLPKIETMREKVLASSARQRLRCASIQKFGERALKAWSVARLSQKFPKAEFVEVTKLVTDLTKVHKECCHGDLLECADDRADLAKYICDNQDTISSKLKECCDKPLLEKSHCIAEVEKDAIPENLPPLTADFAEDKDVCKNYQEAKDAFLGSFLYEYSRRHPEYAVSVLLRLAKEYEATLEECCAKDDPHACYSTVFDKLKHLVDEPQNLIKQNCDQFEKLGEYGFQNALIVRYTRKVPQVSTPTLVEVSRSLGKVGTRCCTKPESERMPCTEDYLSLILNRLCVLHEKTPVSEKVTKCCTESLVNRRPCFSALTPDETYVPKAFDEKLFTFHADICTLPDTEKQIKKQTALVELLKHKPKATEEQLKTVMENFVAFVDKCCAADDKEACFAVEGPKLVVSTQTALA
From the text: The mechanism of the fluorescent quenching of CM14 and CM15 to BSA is described using the Stern-Volmer equation:F0/F = 1 + ksv[Q] = 1 + kq τ0[Q] where F0 and F are the fluorescence intensities before and after the addition of the quencher, respectively; ksv is the dynamic quenching constant; kq is the quenching rate constant; [Q] is the concentration of quencher; τ0 is the average lifetime of the molecule without quencher and its value is considered to be 10^−8 s. The plots show a good linear relationship within the investigated concentrations of CM14 and CM15.
The interaction between coumarin derivatives (CM14 and CM15) and BSA were measured by fluorescence spectroscopy. BSA (≥98%) was obtained from Sigma Aldrich (Kempton Park, South Africa) and dissolved in a Tris–HCl (0.10 mol L^−1, pH = 7.4) buffer to form the BSA solution with a concentration of 1.00 × 10^−5 mol L^−1. A Tris–HCl buffer (0.10 mol L^−1, pH = 7.4) containing 0.10 mol L^−1 NaCl was selected to keep the pH value constant and to maintain the ionic strength of the solution. CM14 and CM15 stock solution (1.00 × 10^−3 mol L^−1) was prepared in MeOH. […] Fluorescence spectra were recorded on a Synergy Mx fluorescence plate reader (BioTek, Winooski, VT, USA). […] Fluorescence spectra were measured in the range of 315–500 nm at the excitation wavelength of 295 nm. […]

M. tuberculosis = conditions: cited from earlier work
[9] = 1 µM compound, day 5, read-out: % M. tuberculosis Growth, Day 5
[10] = 50 µM compound, day 5, read-out: % M. tuberculosis Growth, Day 5
[11] = 100 µM compound, day 5, read-out: % M. tuberculosis Growth, Day 5
[12] = read-out: % M. tuberculosis Growth, Day 5

O=c1ccc2ccc(OCc3ccc(Br)cc3)cc2o1 [CM1]
activity at 1 µM [1, 9]: 96.3%
activity at 50 µM [1, 10]: 79.8%
activity at 100 µM [1, 11]: 63.6%

Cc1cc(=O)oc2cc(OCc3ccc(Br)cc3)ccc12 [CM2]
activity at 1 µM [1, 9]: 90%
activity at 50 µM [1, 10]: 40.9%
activity at 100 µM [1, 11]: 33.2%

Cc1c(Cl)c(=O)oc2cc(OCc3ccc(Br)cc3)ccc12 [CM3]
activity at 1 µM [1, 9]: 97.8%
activity at 50 µM [1, 10]: 96.1%
activity at 100 µM [1, 11]: 92.9%

Cc1c(C#N)c(=O)oc2cc(OCc3ccc(Br)cc3)ccc12 [CM4]
activity at 1 µM [1, 9]: 95.3%
activity at 50 µM [1, 10]: 44.6%
activity at 100 µM [1, 11]: 33.5%

O=c1cc(C(F)(F)F)c2ccc(OCc3ccc(Br)cc3)cc2o1 [CM5]
activity at 1 µM [1, 9]: 107%
activity at 50 µM [1, 10]: 65%
activity at 100 µM [1, 11]: 56.1%

O=c1ccc2ccc(OCCN3CCC(Cc4ccccc4)CC3)cc2o1 [CM6]
activity at 1 µM [1, 9]: 98.2%
activity at 50 µM [1, 10]: 52.7%
activity at 100 µM [1, 11]: 15.4%

Cc1cc(=O)oc2cc(OCCN3CCC(Cc4ccccc4)CC3)ccc12 [CM7]
activity at 1 µM [1, 9]: 95.1%
activity at 50 µM [1, 10]: 29.5%
activity at 100 µM [1, 11]: 8.18%

Cc1c(Cl)c(=O)oc2cc(OCCN3CCC(Cc4ccccc4)CC3)ccc12 [CM8]
MIC90 [2]: 19.6 µM (≈ 8.07 µg/mL)
MIC99 [2]: 25.2 µM (≈ 10.4 µg/mL)
IC50 [3]: 1.27 µM
IC50 (electric eel AChE): 31.3 µM
activity at 1 µM [1, 9]: 93.6%
activity at 50 µM [1, 10]: 5.69%
activity at 100 µM [1, 11]: 4.62%
MIC90 [4]: 40.5 µM (≈ 16.7 µg/mL)
MIC99 [4]: 44.1 µM (≈ 18.2 µg/mL)
CC50 at 44 h [5]: 33 µM

Cc1c(C#N)c(=O)oc2cc(OCCN3CCC(Cc4ccccc4)CC3)ccc12 [CM9]
IC50 [3]: 5.9 µM
IC50 (electric eel AChE): 9.1 µM
activity at 1 µM [1, 9]: 92.8%
activity at 50 µM [1, 10]: 7.75%
activity at 100 µM [1, 11]: 6.19%
cell survival restored after MPP+ exposure (SH-SY5Y cells [6]): 81.86 ± 3.72%
maximal cytoprotection (cell viability) after MPP+ exposure (SH-SY5Y cells [6]; 10 µM compound): 92.2 ± 4.18%
effect on viability of SH-SY5Y cells (SH-SY5Y cells [7]; 10 µM): did not significantly affect
effect on viability of SH-SY5Y cells (SH-SY5Y cells [7]; 50 µM and 100 µM): significantly (p < 0.001) affected
CC50 at 48 h [8]: 10 to 50 µM

O=c1ccc2ccc(OCCN3CCN(Cc4ccc(Br)cc4)CC3)cc2o1 [CM11]
activity at 1 µM [1, 9]: 95.2%
activity at 50 µM [1, 10]: 7.05%
activity at 100 µM [1, 11]: 4.46%

Cc1cc(=O)oc2cc(OCCN3CCN(Cc4ccc(Br)cc4)CC3)ccc12 [CM12]
MIC90 [2]: 14 µM (≈ 6.4 µg/mL)
MIC99 [2]: 29.7 µM (≈ 13.6 µg/mL)
IC50 [3]: 9.7 µM
IC50 (electric eel AChE): 12.8 µM
activity at 1 µM [1, 9]: 95.2%
activity at 50 µM [1, 10]: 4.35%
activity at 100 µM [1, 11]: 3.93%
MIC90 [4]: 40.9 µM (≈ 18.7 µg/mL)
MIC99 [4]: 50.4 µM (≈ 23.1 µg/mL)
CC50 at 44 h [5]: 15.5 µM

Cc1c(Cl)c(=O)oc2cc(OCCN3CCN(Cc4ccc(Br)cc4)CC3)ccc12 [CM13]
activity at 1 µM [1, 9]: 97%
activity at 50 µM [1, 10]: 42.5%
activity at 100 µM [1, 11]: 32.1%

Cc1c(C#N)c(=O)oc2cc(OCCN3CCN(Cc4ccc(Br)cc4)CC3)ccc12 [CM14]
ksv (dynamic quenching constant) (BSA): 380000 mol/L
MIC90 [2]: 16.7 µM (≈ 8.06 µg/mL)
MIC99 [2]: 28 µM (≈ 13.5 µg/mL)
IC50 [3]: 13.3 µM
IC50 (electric eel AChE): 38.5 µM
activity at 1 µM [1, 9]: 99.5%
activity at 50 µM [1, 10]: 4.4%
activity at 100 µM [1, 11]: 4.44%
MIC90 [4]: 45.2 µM (≈ 21.8 µg/mL)
MIC99 [4]: 54.5 µM (≈ 26.3 µg/mL)
cell survival restored after MPP+ exposure (SH-SY5Y cells [6]): 101.2 ± 6.00%
effect on viability of SH-SY5Y cells (SH-SY5Y cells [7]; 10 µM): did not significantly affect
effect on viability of SH-SY5Y cells (SH-SY5Y cells [7]; 50 µM and 100 µM): significantly (p < 0.001) affected
CC50 at 48 h [8]: 50 to 100 µM
CC50 at 44 h [5]: 41.2 µM

O=c1cc(C(F)(F)F)c2ccc(OCCN3CCN(Cc4ccc(Br)cc4)CC3)cc2o1 [CM15]
ksv (dynamic quenching constant) (BSA): 488000 mol/L
MIC90 [2]: 3.2 µM (≈ 1.64 µg/mL)
MIC99 [2]: 8.31 µM (≈ 4.25 µg/mL)
IC50 [3]: > 100 µM
IC50 (electric eel AChE): > 100 µM
activity at 1 µM [1, 9]: 107%
activity at 50 µM [1, 10]: 6.68%
activity at 100 µM [1, 11]: 4.88%
MIC90 [4]: 43.8 µM (≈ 22.4 µg/mL)
MIC99 [4]: 57.2 µM (≈ 29.2 µg/mL)
cell survival restored after MPP+ exposure (SH-SY5Y cells [6]): 81.05 ± 6.83%
effect on viability of SH-SY5Y cells (SH-SY5Y cells [7]; 10 µM): did not significantly affect
effect on viability of SH-SY5Y cells (SH-SY5Y cells [7]; 50 µM and 100 µM): significantly (p < 0.001) affected
CC50 at 48 h [8]: 10 to 50 µM
CC50 at 44 h [5]: 26.3 µM

O=c1ccc2ccc(OCc3ccccc3)cc2o1 [CM16]
activity at 1 µM [1, 12]: 97.5%
activity at 50 µM [1, 12]: 72.7%
activity at 100 µM [1, 12]: 50.7%

Cc1cc(=O)oc2cc(OCc3ccccc3)ccc12 [CM17]
activity at 1 µM [1, 12]: 97.6%
activity at 50 µM [1, 12]: 28.6%
activity at 100 µM [1, 12]: 19.8%

Cc1c(Cl)c(=O)oc2cc(OCc3ccccc3)ccc12 [CM18]
activity at 1 µM [1, 9]: 97.3%
activity at 50 µM [1, 10]: 87.9%
activity at 100 µM [1, 11]: 75.5%

Cc1c(C#N)c(=O)oc2cc(OCc3ccccc3)ccc12 [CM19]
activity at 1 µM [1, 9]: 98.3%
activity at 50 µM [1, 10]: 66.9%
activity at 100 µM [1, 11]: 55.4%

COc1ccc2cc(-n3cc(COc4nc(-c5ccccn5)sc4C(N)=O)nn3)c(=O)oc2c1 [Compound 3]
MIC (M. tuberculosis): 6.5 µM (≈ 3.1 µg/mL)

CC[C@H]1CN2CCc3cc(OC)c(OC)cc3[C@@H]2C[C@@H]1C[C@H]1NCCc2cc(OC)c(OC)cc21 [Emetine, reference compound]
CC50 ([5]; Chinese hamster): 0.06 µM

C[n+]1ccc(-c2ccccc2)cc1 [MPP^+, 1-methyl-4-phenyl pyridinium, reference compound]
cell viability after MPP+ without test compound (SH-SY5Y cells [6]): 51.42 ± 3.18%

CO[C@H]1/C=C/O[C@@]2(C)Oc3c(C)c(O)c4c(O)c(c(/C=N/N5CCN(C)CC5)c(O)c4c3C2=O)NC(=O)/C(C)=C\C=C\[C@H](C)[C@H](O)[C@@H](C)[C@@H](O)[C@@H](C)[C@H](OC(C)=O)[C@@H]1C [RIF, rifampicin, reference compound]
MIC [2]: 0.0274 µM (≈ 0.0225 µg/mL)
inhibition at 6 µM ([1]; read-out: inhibition of bacterial growth): 100%
